The source made the active and inactive calls. The rule behind the calls is not given here.
Columns and labels:
[1] = molecular target: Botulinum neurotoxin type A (Clostridium botulinum) (UniProt P0DPI0); assay: Inhibition of BoNT/A light chain at 1 to 32 uM using SNAPtide flp6 as substrate measured after 30 mins by FRET assay; conditions: dose 1-32 µM, TDE = time-dependent effect
[2] = molecular target: Botulinum neurotoxin type A (Clostridium botulinum, UniProt P0DPI0); assay: Inhibition of Clostridium botulinum BoNT/A light chain assessed as inhibition constant at 10 nM using SNAPtide flp6 as substrate measured after 30 mins by FRET assay
[3] = Half life of compound; type: physicochemical
[4] = molecular target: Botulinum neurotoxin type A (Clostridium botulinum) (UniProt P0DPI0); assay: Inhibition of Clostridium botulinum BoNT/A light chain assessed as inhibition constant at 6 to 30 uM using SNAPtide flp6 as substrate measured after 30 mins by FRET assay; conditions: dose 6-30 µM

Botulinum neurotoxin type A, sequence (P0DPI0 2-448 limits assumed): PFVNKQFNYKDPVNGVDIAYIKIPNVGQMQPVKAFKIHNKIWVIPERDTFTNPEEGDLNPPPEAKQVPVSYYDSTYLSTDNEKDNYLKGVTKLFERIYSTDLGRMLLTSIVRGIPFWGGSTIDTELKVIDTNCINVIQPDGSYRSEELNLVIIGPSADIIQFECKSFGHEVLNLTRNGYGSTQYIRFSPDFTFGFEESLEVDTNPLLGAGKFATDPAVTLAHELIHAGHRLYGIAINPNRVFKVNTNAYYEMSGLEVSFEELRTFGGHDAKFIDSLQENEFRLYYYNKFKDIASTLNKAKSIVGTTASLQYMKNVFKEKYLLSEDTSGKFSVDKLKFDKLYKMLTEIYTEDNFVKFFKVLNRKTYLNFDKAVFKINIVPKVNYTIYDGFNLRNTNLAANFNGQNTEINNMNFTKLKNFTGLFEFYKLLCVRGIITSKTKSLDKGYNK
Botulinum neurotoxin type A (Clostridium botulinum), sequence (P0DPI0 2-448 limits assumed): as above

Structure (SMILES) | inhibition [1] | Ki [2] [µM] | half-life [3] [min] | inhibition [4]
C=CCCCCCCN(O)C(=O)/C=C/c1ccc(Cl)cc1Cl | Tde | 2.84 |  | 
C=CCCCN(O)C(=O)/C=C/c1ccc(Cl)cc1Cl | Tde | > 8 |  | 
C=CN(O)C(=O)/C=C/c1ccc(Cl)cc1Cl |  | > 32 |  | 
C=CCN(O)C(=O)/C=C/c1ccc(Cl)cc1Cl |  | > 16 |  | 
O=C(/C=C/c1ccc(Cl)cc1Cl)N(O)CCCCCC1CC1 |  |  | 33 | Active
CCCCCCCN(O)C(=O)/C=C/c1ccc(Cl)cc1Cl |  | 2.47 |  | 
C=CCCCCN(O)C(=O)/C=C/c1ccc(Cl)cc1Cl | Tde | 6.31 |  | 
C=CCCCCCN(O)C(=O)/C=C/c1ccc(Cl)cc1Cl | Tde | 4.66 |  | 
